US20060166867A1, “Novel conjugates of polysaccharides and uses thereof” (priority 2003, published 2006)
Like-named read-outs stand apart in the source and are kept apart here.

Key:
HIV-1 IIIB = assay: microbe, parasite or virus in culture; type: cell-based; settings: for inhibition activity (anti-HIV): in up to 50 μM concentrations
Procedure: (§1) Inhibition of HIV-1 cell replication was tested using the cMAGI assay, which is based on the ability of HIV-1 TAT to transactivate the expression of an integrated β-galactosidase reporter gene driven by the HIV-LTR (B. Chackeria et al., J. Virol., (1997) 71, 3932; Collins et al., Nat. Med. (2000) 6, 475). The β-galactosidase reporter is modified to remain localized in the nucleus where it can be detected with the X-gal (5-bromo-4-chloro-3indoyl-β-D-galactopyranoside) substrate as an intense nuclear stain within a few days of infection.
(§2) HIV-1 isolates were propagated by subculture in MT2 cells (Litovchick et al. (2001) supra). Aliquots of cell-free culture supernatants were used as viral inoculum. PAACs were dissolved in the RPMI 1640 medium. Cytotoxicity determinations were carried out in MT2 cells by trypan blue exclusion assay. Viral inhibition was determined by incubating MT2 or cMAGI HIV-1 reporter cells with 0.2-0.5 multiplicity of infection of HIV-1 wild type or resistant virus for 4 days at 37° C. in the presence or absence of various concentrations of pAACs. HIV-1 infection of cMAGI cells was determined by counting the number of HIV-1-infected cells (stained blue). The cytopathic effects of the viral infection of MT2 cells were also analyzed by microscopic assessment of syncytium formation.

in vitro = type: cell-based; settings: human, read-out: Cytotoxicity
Procedure: Cytotoxicity of the various pAACs was determined using the trypan blue exclusion assay. In brief, a sample of the cell suspension was diluted 1:1 (v/v) with 0.4% trypan blue and the cells were counted using a hemocytometer. Results are expressed as the percentage of dead cells.
as §2

CXCR4 = biological target: T1, CXCR4 (Homo sapiens, UniProt P61073); assay: Competition with 12G5 mAb binding to CXCR4 on MT2 cells (flow cytometry); settings: for median fluorescent intensity (MFI) of 12G5 mAb binding to MT2 cells: without compound 55.56, isotype control 4.0
T1 construct: incubated at 4° C. with anti-CXCR4 mAb, 12G5, conjugated to phycoerithrine (PE); endogenous in cells; host or cells: MT2 cells
Procedure: Interaction of pAACs and arginine peptides with CXCR4 coreceptor: Interactions of pAACs and arginine-peptides with CXCR4 were determined by flow cytometry (FACS-Scan, Becton Dickinson) as previously described (Litovich (2001) supra). In brief, 0.5×10^6 MT2 cells were washed with ice-cold PBS containing 0.1% sodium azide (wash buffer) and were incubated at 4° C. with anti-CXCR4 mAb, 12G5, conjugated to phycoerithrine (PE), in the absence or presence of different concentrations of pAACs and arginine peptides. After 30 minutes of incubation, the cells were washed with ice-cold wash buffer and fixed in PBS containing 1% paraformaldehyde. Non-specific fluorescence was assessed using an isotype control. For each sample 10,000 events were acquired. Data were analyzed and processed using CellQuest™ software (Becton Dickinson).

[1] = test system: HIV-1 AZT resistant virus; type: cell-based; settings: Table 4; read-out: EC50 AZT^Res
Procedure: as §1, §2

HIV-1 Ba-L = type: cell-based; settings: Table 4
Procedure: as §1, §2

[2] = test system: HIV-1 NeoR6 resistant virus; type: cell-based; settings: read-out: EC50 NeoR6^Res; Table 4
Procedure: as §1, §2

[3] = test system: HIV-1 Protease resistant virus; type: cell-based; settings: Table 4; read-out: EC50 Protease^Res
Procedure: as §1, §2

[4] = test system: HIV-1 clinical isolate Clade A; type: cell-based
Procedure: as §1, §2

[5] = test system: HIV-1 clinical isolate Clade C; type: cell-based
Procedure: as §1, §2

[6] = test system: HIV-1 wild-type and NeoR6 resistant isolates; settings: cited from earlier work
[7] = Table 3, against HIV-1 IIIB virus, read-out: EC50
[8] = MT2 cells, Table 3, trypan blue exclusion
[9] = Table 4, tryphan blue exclusion assay for MT2 cells
[10] = Table 4, read-out: EC50 Clade A
[11] = Table 4, read-out: EC50 Clade C

T1 sequence (P61073 whole entry): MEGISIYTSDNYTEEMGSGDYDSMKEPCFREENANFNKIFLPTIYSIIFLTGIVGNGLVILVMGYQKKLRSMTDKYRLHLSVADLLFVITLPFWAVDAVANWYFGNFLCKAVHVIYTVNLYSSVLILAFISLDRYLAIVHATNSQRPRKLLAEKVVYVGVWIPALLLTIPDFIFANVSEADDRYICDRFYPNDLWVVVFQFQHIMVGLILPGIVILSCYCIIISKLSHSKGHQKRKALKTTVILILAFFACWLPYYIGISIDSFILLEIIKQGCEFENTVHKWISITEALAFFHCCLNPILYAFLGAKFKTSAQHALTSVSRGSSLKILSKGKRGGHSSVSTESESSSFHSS

N=C(N)NCCC[C@H](NC(=O)[C@H](CCCNC(=N)N)NC(=O)[C@H](CCCNC(=N)N)NC(=O)[C@H](CCCNC(=N)N)NC(=O)[C@H](CCCNC(=N)N)NC(=O)[C@@H](N)CCCNC(=N)N)C(=O)O [Compound 1, L-Arg-6mer-NH2]
EC50 (HIV-1 IIIB; [7]): 110 µM | inhibition activity (anti-HIV) (HIV-1 IIIB): no inhibition activity

N=C(N)NCCC[C@H](NC(=O)[C@H](CCCNC(=N)N)NC(=O)[C@H](CCCNC(=N)N)NC(=O)[C@H](CCCNC(=N)N)NC(=O)[C@H](CCCNC(=N)N)NC(=O)[C@@H](N)CCCNC(=N)N)C(=O)NC[C@H]1O[C@H](O[C@H]2[C@H](O)[C@@H](O)[C@H](N)C[C@@H]2N)[C@H](N)[C@@H](O)[C@@H]1O [Compound 2, L-Arg-6-mer-neamine]
EC50 (HIV-1 IIIB; [7]): 70 ± 10 µM | CC50 (in vitro; [8]): 210 µM | inhibition at 20 µM (CXCR4; read-out: % Inhibition of 12G5 mAb binding to CXCR4, 20 μM): 35.4%

N=C(N)NCCC[C@H](NC(=O)[C@H](CCCNC(=N)N)NC(=O)[C@H](CCCNC(=N)N)NC(=O)[C@H](CCCNC(=N)N)NC(=O)[C@H](CCCNC(=N)N)NC(=O)[C@@H](N)CCCNC(=N)N)C(=O)NC[C@@H]1O[C@H](O[C@H]2[C@@H](O)[C@H](O[C@@H]3[C@@H](O)[C@H](N)C[C@H](N)[C@H]3O[C@H]3O[C@H](CO)[C@@H](O)[C@H](O)[C@H]3N)O[C@@H]2CO)[C@H](N)[C@@H](O)[C@@H]1O [Compound 3, L-Arg-6-mer-paromomycin]
EC50 (HIV-1 IIIB; [7]): 31 ± 10 µM | CC50 (in vitro; [8]): 160 µM

N=C(N)NCCC[C@H](NC(=O)[C@H](CCCNC(=N)N)NC(=O)[C@H](CCCNC(=N)N)NC(=O)[C@H](CCCNC(=N)N)NC(=O)[C@H](CCCNC(=N)N)NC(=O)[C@H](CCCNC(=N)N)NC(=O)[C@H](CCCNC(=N)N)NC(=O)[C@H](CCCNC(=N)N)NC(=O)[C@@H](N)CCCNC(=N)N)C(=O)NC[C@H]1O[C@H](O[C@H]2[C@H](O)[C@@H](O)[C@H](N)C[C@@H]2N)[C@H](N)[C@@H](O)[C@@H]1O [Compound 6, L-Arg-9-mer-neamine]
EC50 (HIV-1 IIIB; [7]): 37.5 ± 2.5 µM | CC50 (in vitro; [8]): 175 µM | inhibition at 80 µM (CXCR4; read-out: % Inhibition of 12G5 mAb binding to CXCR4, 80 μM): 30.1%

N=C(N)NCCC[C@H](NC(=O)[C@H](CCCNC(=N)N)NC(=O)[C@H](CCCNC(=N)N)NC(=O)[C@H](CCCNC(=N)N)NC(=O)[C@H](CCCNC(=N)N)NC(=O)[C@H](CCCNC(=N)N)NC(=O)[C@H](CCCNC(=N)N)NC(=O)[C@H](CCCNC(=N)N)NC(=O)[C@@H](N)CCCNC(=N)N)C(=O)NC[C@@H]1O[C@H](O[C@H]2[C@@H](O)[C@H](O[C@@H]3[C@@H](O)[C@H](N)C[C@H](N)[C@H]3O[C@H]3O[C@H](CO)[C@@H](O)[C@H](O)[C@H]3N)O[C@@H]2CO)[C@H](N)[C@@H](O)[C@@H]1O [Compound 7, L-Arg-9-mer-paromomycin]
EC50 (HIV-1 IIIB; [7]): 31 ± 9 µM | CC50 (in vitro; [8]): 140 µM

CC(=O)N[C@H](CCCNC(=N)N)C(=O)N[C@H](CCCNC(=N)N)C(=O)N[C@H](CCCNC(=N)N)C(=O)N[C@H](CCCNC(=N)N)C(=O)N[C@H](CCCNC(=N)N)C(=O)N[C@H](CCCNC(=N)N)C(=O)O [Compound 9, D-Arg-6-mer-NHAc]
EC50 (HIV-1 IIIB; Table 4, read-out: EC50 IIIB): 5.8 ± 1.7 µM | EC50 [1]: 15.2 ± 6.2 µM | EC50 (HIV-1 Ba-L): > 50 µM | EC50 [2]: 6.8 ± 0.7 µM | EC50 [3]: 4.9 ± 1 µM | EC50 ([4]; clinical isolate Clade A): 8 ± 1 µM | EC50 ([5]; clinical isolate Clade C): 5300 ± 300 nM | CC50 (in vitro; [9]): 170 µM | inhibition at 2 µM (CXCR4; 2 μM, read-out: % Inhibition of 12G5 mAb binding to CXCR4): 1.6% | inhibition at 10 µM (CXCR4; 10 μM, read-out: % Inhibition of 12G5 mAb binding to CXCR4): 70.9%

CC(=O)N[C@H](CCCNC(=N)N)C(=O)N[C@H](CCCNC(=N)N)C(=O)N[C@H](CCCNC(=N)N)C(=O)N[C@H](CCCNC(=N)N)C(=O)N[C@H](CCCNC(=N)N)C(=O)N[C@H](CCCNC(=N)N)C(=O)NC[C@H]1O[C@H](O[C@H]2[C@H](O)[C@@H](O)[C@H](N)C[C@@H]2N)[C@H](N)[C@@H](O)[C@@H]1O [Compound 10, D-Arg-6-mer-neamine]
EC50 (HIV-1 IIIB; Table 4, read-out: EC50 IIIB): 1.8 ± 0.1 µM | EC50 [1]: 7 ± 4 µM | EC50 (HIV-1 Ba-L): > 50 µM | EC50 [2]: 2.6 ± 1.2 µM | EC50 [3]: 2.2 ± 0.4 µM | EC50 [4, 10]: 3.2 ± 1.3 µM | EC50 [5, 11]: 1700 ± 100 nM | CC50 (in vitro; [9]): 150 µM | % Inhibition of 12G5 mAb binding to CXCR4 (CXCR4; 2 μM): 91.1% | median fluorescent intensity (MFI) of 12G5 mAb binding to MT2 cells (CXCR4; 2 μM): 9.6 | median fluorescent intensity (MFI) of 12G5 mAb binding to MT2 cells (CXCR4; 10 μM): 3.3 | inhibition at 2 µM (CXCR4; read-out: % Inhibition of 12G5 mAb binding to CXCR4, 2 μM): 91% | inhibition at 10 µM (CXCR4; read-out: % Inhibition of 12G5 mAb binding to CXCR4, 10 μM): 100%

N=C(N)NCCCC(N)C(=O)NC(CCCNC(=N)N)C(=O)NC(CCCNC(=N)N)C(=O)NC(CCCNC(=N)N)C(=O)NC(CCCNC(=N)N)C(=O)NC(CCCNC(=N)N)C(=O)NC(CCCNC(=N)N)C(=O)NC(CCCNC(=N)N)C(=O)NC(CCCNC(=N)N)C(=O)NC[C@H]1O[C@H](O[C@H]2[C@H](O)[C@@H](O)[C@H](N)C[C@@H]2N)[C@H](N)[C@@H](O)[C@@H]1O (stereo partly drawn) [Compound 16, D/L-Arg-9-mer-neamine]
CC50 (in vitro; [8]): 160 µM

N=C(N)NCCC[C@H](NC(=O)[C@@H](N)CCCNC(=N)N)C(=O)NCC1OC(OC2C(N)CC(N)C(O)C2O)C(N)C(O)C1O (stereo partly drawn) [Compound 21, L-Arg-2-mer-neamine]
EC50 (HIV-1 IIIB; [7]): ~46 µM

NC[C@H]1O[C@H](O[C@H]2[C@H](O)[C@@H](O)[C@H](N)C[C@@H]2N)[C@H](N)[C@@H](O)[C@@H]1O [neamine, Neamine, reference compound]
inhibition activity (anti-HIV) (HIV-1 IIIB): no inhibition activity

D-Arg-6-mer-neomycin [Compound 11]
EC50 (HIV-1 IIIB; Table 4, read-out: EC50 IIIB): 2.1 ± 0.6 µM | EC50 [1]: 10.4 ± 4.1 µM | EC50 (HIV-1 Ba-L): > 50 µM | EC50 [2]: 5.3 ± 2.5 µM | EC50 [3]: 4 ± 1 µM | EC50 [4, 10]: 5.7 ± 2.8 µM | EC50 [5, 11]: 3000 ± 800 nM | % Inhibition of 12G5 mAb binding to CXCR4 (CXCR4; 2 μM): 79% | % Inhibition of 12G5 mAb binding to CXCR4 (CXCR4; 2 μM, listed as r6-D-arginine-neomycin): 91.1% | % Inhibition of 12G5 mAb binding to CXCR4 (CXCR4; 10 μM): 99.3%

L-Arg-6-mer-neomycin [Compound 4]
EC50 (HIV-1 IIIB; [7]): 40 ± 12 µM

tri-arginine gentamycin C1 conjugate [Compound R3G]
times more resistant, NeoR6^res isolates than wild-type virus [6]: about 5 times | EC50 ([6]; wild-type and NeoR6 resistant isolates): 4.1 µM
